# Experimental data reported in US10829520B2, “Beta-hairpin peptidomimetics” (POLYPHOR AG, priority 2015, dated 2020).
# Where a SMILES comes first, the peptide text is derived from it. Bridges are numbered along the chain shown (N, C = ends). Roman numbers before positions name the chains, in order. [ ]: non-standard residue; d: D form. Ala(cPent) = N[C@@H](CC1CCCC1)C(=O)O; Hyp = O=C(O)[C@@H]1C[C@@H](O)CN1; Tle = CC(C)(C)[C@H](N)C(=O)O; dDab = NCC[C@@H](N)C(=O)O; Nle = CCCC[C@H](N)C(=O)O; Orn = NCCC[C@H](N)C(=O)O; Dab = NCC[C@H](N)C(=O)O; Dap = NC[C@H](N)C(=O)O
# Tests used:
# Assay type in all cases: cell-based
# [1] = test system: Klebsiella pneumoniae 968733; conditions: 968733
# [2] = test system: Escherichia coli ATCC 25922; conditions: ATCC 25922
# Outline: (§1)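 Minimal inhibitory concentrations were recorded in μg/mL after the strains grew 18-20 hours at 35° C with two-fold serial peptide dilutions. The medium was Mueller-Hinton II (cation-adjusted) with 0.002% Polysorbate 80, and the inoculum was about 10^6 CFU/mL.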
# Escherichia coli 926415 = conditions: 926415
# [3] = test system: Pseudomonas aeruginosa ATCC 27853; conditions: ATCC 27853
# Outline: as §1
# [4] = test system: Acinetobacter baumannii DSM 30008; conditions: DSM 30008
# Outline: as §1
# [5] = test system: Klebsiella pneumoniae SSI #3010; conditions: SSI #3010
# Outline: as §1
# [6] = test system: Acinetobacter baumannii 872842; conditions: 872842
# [7] = test system: human red blood cells (hRBC); test: Hemolysis of human red blood cells; conditions: red cells of human, 1 h
# Outline: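 Each peptide was tested at a single concentration, 100 μg/mL. Erythrocytes (20% v/v) were incubated 1 h at 37° C. under shaking at 300 rpm, centrifuged, and released hemoglobin measured at OD540. Controls were PBS containing 0.001% acetic acid (0%) and Triton X-100 (100%).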
SMILES,Klebsiella pneumoniae 968733 MIC [1],Escherichia coli ATCC 25922 MIC [2],Escherichia coli 926415 MIC (Escherichia coli 926415),Pseudomonas aeruginosa ATCC 27853 MIC [3],Acinetobacter baumannii DSM 30008 MIC [4],Klebsiella pneumoniae SSI #3010 MIC [5],Acinetobacter baumannii 872842 MIC [6],Hemolysis at 100 μg/mL ([7]; 100 μg/mL),Hemolysis at 100 μg/mL [7]; 100
CC(C)C[C@@H]1NC(=O)[C@@H](Cc2ccccc2)NC(=O)[C@H](CCN)NC(=O)[C@@H](NC(=O)[C@H](CCN)NC(=O)[C@@H](NC(=O)[C@H](CCN)NC(=O)CNC(=O)[C@@H]2CSSC[C@H](NC(=O)[C@@H](N)Cc3c[nH]c4ccccc34)C(=O)N[C@@H](C(C)C)C(=O)N[C@@H](C)C(=O)N[C@@H](CO)C(=O)N3CCC[C@@H]3C(=O)N3CCC[C@H]3C(=O)N[C@@H](CC3CCCC3)C(=O)N[C@@H](CO)C(=O)N[C@@H](Cc3ccc(O)cc3)C(=O)N2)[C@@H](C)O)CCNC(=O)[C@H]([C@@H](C)O)NC(=O)[C@H](CCN)NC(=O)[C@H](CCN)NC1=O [Ex. 132] (H-WCVAS[dP]P[Ala(cPent)]SYCG[Dab]T[Dab][Dab][Dab][dF]L[Dab][Dab]T; disulfide 2-11; lactam 16-C),0.125 µg/mL,0.0625 µg/mL,0.1255 µg/mL,0.25 µg/mL,0.0625 µg/mL,0.125 µg/mL,0.0625 µg/mL,<1%,
CC(=O)N[C@@H](Cc1c[nH]c2ccccc12)C(=O)N[C@H]1CSSC[C@@H](C(=O)N[C@@H](CCCN)C(=O)N[C@H](C(=O)N[C@@H](CCN)C(=O)N[C@@H](CCN)C(=O)N[C@H]2CCNC(=O)[C@H]([C@@H](C)O)NC(=O)[C@H](CCN)NC(=O)[C@H](CCN)NC(=O)[C@H](CC(C)C)NC(=O)[C@@H](Cc3ccccc3)NC(=O)[C@H](CCN)NC2=O)[C@@H](C)O)NC(=O)[C@H](Cc2ccc(O)cc2)NC(=O)[C@H](CO)NC(=O)[C@H](CC(C)C)NC(=O)[C@@H]2CCCN2C(=O)[C@H]2CCCN2C(=O)[C@H](CN)NC(=O)[C@H](C)NC(=O)[C@H](C(C)(C)C)NC1=O [Ex. 142] (Ac-WC[Tle]A[Dap][dP]PLSYC[Orn]T[Dab][Dab][Dab][Dab][dF]L[Dab][Dab]T; disulfide 2-11; lactam 16-C),1 µg/mL,0.5 µg/mL,0.25 µg/mL,0.25 µg/mL,0.25 µg/mL,0.5 µg/mL,0.125 µg/mL,<1%,
CC(C)C[C@@H]1NC(=O)[C@@H](CC(C)C)NC(=O)[C@H](CCN)NC(=O)[C@@H](NC(=O)[C@H](CCN)NC(=O)[C@@H](NC(=O)[C@H](CCN)NC(=O)CC[C@@H]2NC(=O)[C@H](CCN)NC(=O)[C@H](Cc3ccc(O)cc3)NC(=O)[C@H](CO)NC(=O)[C@H](CC(C)C)NC(=O)[C@@H]3C[C@@H](O)CN3C(=O)[C@@H](C)NC(=O)[C@H](CO)NC(=O)[C@H]([C@@H](C)O)NC(=O)[C@H](C(C)C)NC(=O)[C@H](CCN)NC(=O)[C@H](Cc3c[nH]c4ccccc34)NC(=O)[C@H](CCN)NC(=O)[C@@H](CCN)NC2=O)[C@@H](C)O)CCNC(=O)[C@H]([C@@H](C)O)NC(=O)[C@H](CCN)NC(=O)[C@H](CCN)NC1=O [Ex. 88] (I: cyclo([Dab]E[dDab][Dab]W[Dab]VTS[dA][Hyp]LSY) / II: [Dab]T[Dab][Dab][Dab][dL]L[Dab][Dab]T; amide I:2-II:N; lactam II:4-II:C),2 µg/mL,0.125 µg/mL,1 µg/mL,0.5 µg/mL,0.5 µg/mL,0.25 µg/mL,1 µg/mL,,1%
CC(C)C[C@@H]1NC(=O)[C@@H](CC(C)C)NC(=O)[C@H](CCN)NC(=O)[C@@H](NC(=O)[C@H](CCN)NC(=O)[C@@H](CCN)NC(=O)[C@@H](NC(=O)[C@H](CCCN)NC(=O)[C@@H]2CSSC[C@H](NC(=O)[C@@H](N)Cc3c[nH]c4ccccc34)C(=O)N[C@@H](C(C)C)C(=O)NCC(=O)N[C@@H](CO)C(=O)N3CCC[C@@H]3C(=O)N3CCC[C@H]3C(=O)N[C@@H](C(C)C)C(=O)N[C@@H](CN)C(=O)N[C@@H](Cc3ccc(O)cc3)C(=O)N2)[C@@H](C)O)CCNC(=O)[C@H]([C@@H](C)O)NC(=O)[C@H](CCN)NC(=O)[C@H](CCN)NC1=O [Ex. 136] (H-WCVGS[dP]PV[Dap]YC[Orn]T[dDab][Dab][Dab][Dab][dL]L[Dab][Dab]T; disulfide 2-11; lactam 16-C),4 µg/mL,0.5 µg/mL,0.5 µg/mL,0.25 µg/mL,1 µg/mL,1 µg/mL,0.25 µg/mL,<1%,
CCCC[C@@H]1NC(=O)[C@@H]2CCCN2C(=O)[C@H]2CCCN2C(=O)[C@H](CO)NC(=O)[C@H](CO)NC(=O)[C@H](C(C)(C)C)NC(=O)[C@@H](NC(=O)[C@@H](N)Cc2c[nH]c3ccccc23)CSSC[C@@H](C(=O)N[C@@H](CCC(=O)O)C(=O)N[C@@H](CCN)C(=O)N[C@@H](CCN)C(=O)N[C@H]2CCNC(=O)[C@H]([C@@H](C)O)NC(=O)[C@H](CCN)NC(=O)[C@H](CCN)NC(=O)[C@H](CC(C)C)NC(=O)[C@@H](Cc3ccccc3)NC(=O)[C@H](CCN)NC2=O)NC(=O)[C@H](Cc2ccc(O)cc2)NC(=O)[C@H](CO)NC1=O [Ex. 108] (H-WC[Tle]SS[dP]P[Nle]SYCE[Dab][Dab][Dab][Dab][dF]L[Dab][Dab]T; disulfide 2-11; lactam 15-C),2 µg/mL,1 µg/mL,0.5 µg/mL,1 µg/mL,1 µg/mL,2 µg/mL,1 µg/mL,2%,
CCCC[C@@H]1NC(=O)[C@@H]2CCCN2C(=O)[C@H]2CCCN2C(=O)[C@H](CO)NC(=O)[C@H](CN)NC(=O)[C@H](C(C)(C)C)NC(=O)[C@H](CCN)NC(=O)[C@H](Cc2c[nH]c3ccccc23)NC(=O)[C@H](CCN)NC(=O)[C@@H](CCN)NC(=O)[C@H](CCC(=O)N[C@@H](CCN)C(=O)N[C@H](C(=O)N[C@@H](CCN)C(=O)N[C@H]2CCNC(=O)[C@H]([C@@H](C)O)NC(=O)[C@H](CCN)NC(=O)[C@H](CCN)NC(=O)[C@H](CC(C)C)NC(=O)[C@@H](CC(C)C)NC(=O)[C@H](CCN)NC2=O)[C@@H](C)O)NC(=O)[C@H](CCN)NC(=O)[C@H](Cc2ccc(O)cc2)NC(=O)[C@H](CO)NC1=O [Ex. 84] (I: cyclo([Nle]SY[Dab]E[dDab][Dab]W[Dab][Tle][Dap]S[dP]P) / II: [Dab]T[Dab][Dab][Dab][dL]L[Dab][Dab]T; amide I:5-II:N; lactam II:4-II:C),2 µg/mL,1 µg/mL,1 µg/mL,2 µg/mL,1 µg/mL,2 µg/mL,2 µg/mL,,1%
CCCC[C@@H]1NC(=O)[C@@H]2CCCN2C(=O)[C@H]2CCCN2C(=O)[C@H](CO)NC(=O)[C@H](CO)NC(=O)[C@H](C(C)(C)C)NC(=O)[C@H](CCN)NC(=O)[C@H](Cc2c[nH]c3ccccc23)NC(=O)[C@@H](N)CSSC[C@@H](C(=O)N[C@H](Cc2c[nH]c3ccccc23)C(=O)N[C@@H](CCN)C(=O)N[C@H]2CCNC(=O)[C@H]([C@@H](C)O)NC(=O)[C@H](CCN)NC(=O)[C@H](CCN)NC(=O)[C@H](CC(C)C)NC(=O)[C@@H](Cc3ccccc3)NC(=O)[C@H](CCN)NC2=O)NC(=O)[C@H](CCCN)NC(=O)[C@H](CCN)NC(=O)[C@H](Cc2ccc(O)cc2)NC(=O)[C@H](CO)NC1=O [Ex. 202] (H-CW[Dab][Tle]SS[dP]P[Nle]SY[Dab][Orn]C[dW][Dab][Dab][Dab][dF]L[Dab][Dab]T; disulfide 1-14; lactam 17-C),2 µg/mL,0.25 µg/mL,0.5 µg/mL,1 µg/mL,1 µg/mL,1 µg/mL,0.5 µg/mL,2%,
CCCC[C@@H]1NC(=O)[C@@H]2CCCN2C(=O)[C@H]2CCCN2C(=O)[C@H](CO)NC(=O)[C@H](C)NC(=O)[C@H](C(C)(C)C)NC(=O)[C@H](CCN)NC(=O)[C@H](Cc2c[nH]c3ccccc23)NC(=O)[C@H](CCC(=O)N[C@@H](CCN)C(=O)N[C@H](C(=O)N[C@@H](CCN)C(=O)N[C@H]2CCNC(=O)[C@H]([C@@H](C)O)NC(=O)[C@H](CCN)NC(=O)[C@H](CCN)NC(=O)[C@H](CC(C)C)NC(=O)[C@@H](Cc3ccccc3)NC(=O)[C@H](CCN)NC2=O)[C@@H](C)O)NC(=O)[C@@H](CCN)NC(=O)[C@H](CCCN)NC(=O)[C@H](CCN)NC(=O)[C@H](Cc2ccc(O)cc2)NC(=O)[C@H](CO)NC1=O [Ex. 10] (I: cyclo([Nle]SY[Dab][Orn][dDab]EW[Dab][Tle]AS[dP]P) / II: [Dab]T[Dab][Dab][Dab][dF]L[Dab][Dab]T; amide I:7-II:N; lactam II:4-II:C),2 µg/mL,0.125 µg/mL,0.5 µg/mL,0.5 µg/mL,1 µg/mL,0.25 µg/mL,1 µg/mL,,1%
